pIC50: −log10 of the molar value. Like-named read-outs stand apart in the source and are kept apart here.
Legend:
[1] = tested on: NCI-H2052 Tet-On shYAP_2371 pLenti6 MCAT_Luc cells; assay: Proliferation assay (resazurin), NCI-H2052; type: cell-based; conditions: 72 hours incubation
Method in brief: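 The NCI-H2052 line carries a Tet-inducible shRNA against the YAP1 3′UTR and an MCAT luciferase reporter. The day after seeding, it received eleven 2-fold compound dilutions at 0.1% DMSO, and viability was read by resazurin fluorescence.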

[2] = biological target: His-humanTEAD4 217-434 / N-biotinylated YAP 60-100 (Homo sapiens (Human), UniProt Q15561); assay: TR-FRET YAP-TEAD4 biochemical assay, alternative format; type: binding; conditions: alternative format, marked with star *); 5 nM His-humanTEAD4 217-434, 10 nM N-biotinylated YAP 60-100
Description: […] Compounds were dissolved at 10 mM in 100% DMSO and serial dilutions were made in 100% DMSO. The diluted compound solutions were incubated in white 384-well plates (Greiner Bio-One) for 1 h at room temperature with the above described mix. The final DMSO concentration present in the assay was 1%. […] The IC50 values were estimated by fitting the data by nonlinear fit regression (GraphPad Prism).

[3] = tested on: NCI-H2052 Tet-On shYAP_2371 pLenti6 MCAT_Luc cells (YAP-dependent transcription); assay: YAP reporter gene activity assay (MCAT-luciferase), NCI-H2052; type: cell-based; conditions: 24 hours incubation, BrightGlo luminescence
Method in brief: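 Luminescence was read 5 min after BrightGlo, following 24 h at 37 °C of compound exposure (eleven 2-fold dilutions, DMSO normalized to 0.1%). Cells were NCI-H2052 with a YAP-responsive MCAT-luciferase and a Tet-inducible shRNA against YAP1 3′UTR. Cell-free background was removed, values were normalized to vehicle, and IC50 was fitted with four parameters.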

[4] = tested on: MKN-45/Ubc-luc cells; assay: Proliferation assay (resazurin), MKN-45; type: cell-based; conditions: 72 hours incubation
[5] = tested on: MKN-45/Ubc-luc cells; assay: Reporter gene specificity control (Ubc-luciferase), MKN-45; conditions: for pIC50: read-out: Reporter gene assay MKN-45 IC50, MKN-45/Ubc-luc cells (YAP deleted, specificity control), 24 hours incubation
[6] = biological target: Avi-humanTEAD4 217-434 / Cy5 labeled humanYAP 60-100 (Homo sapiens (Human), UniProt Q15561); assay: TR-FRET YAP-TEAD4 in-vitro biochemical assay; type: binding; conditions: 1 nM Avi-humanTEAD4 217-434, 20 nM Cy5-humanYAP 60-100, 1 h room temperature
Chain of Avi-humanTEAD4 217-434 / Cy5 labeled humanYAP 60-100 (Q15561 217-434): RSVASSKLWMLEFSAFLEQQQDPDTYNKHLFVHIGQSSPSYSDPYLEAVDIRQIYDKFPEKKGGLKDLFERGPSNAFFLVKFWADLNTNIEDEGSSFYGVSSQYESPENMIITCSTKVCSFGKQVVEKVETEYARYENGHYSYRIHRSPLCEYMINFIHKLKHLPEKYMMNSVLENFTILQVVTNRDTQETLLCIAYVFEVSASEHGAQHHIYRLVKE

Chain of His-humanTEAD4 217-434 / N-biotinylated YAP 60-100 (Q15561 217-434): as above

GI50 [1] | pIC50 [2] | pIC50 [3] | GI50 [4] | pIC50 [5] | GI50 ([1]; Homo sapiens, NCI-H2052, 72 h) | pIC50 ([3]; Homo sapiens, NCI-H2052, 24 h) | GI50 ([4]; Homo sapiens) | IC50 ([5]; Homo sapiens, MKN-45, 24 h, read-out: Reporter gene assay MKN-45 IC50 [μM], MKN-45/Ubc-luc cells (YAP deleted, specificity control), 24 hours incubation) | pIC50 [6] | SMILES
366 nM | 7.74 | 6.62 | > 13300 nM | < 4.70 |  |  |  |  |  | NC(=O)c1cccc(F)c1-c1c(Cl)ccc2c1C[C@@](CN[C@H]1CC[C@H](C(N)=O)CC1)(c1ccccc1)O2 (relative stereo) [Example 138a, 2-((2S,4S)-2-((((Trans)-4-carbamoylcyclohexyl)amino)methyl)-5-chloro-2-phenyl-2,3-dihydrobenzofuran-4-yl)-3-fluorobenzamide]
 | 7.48 |  |  |  | 833 nM | 6.30 | 6120 nM | > 10 µM |  | NC[C@@]1(c2ccccc2)Cc2c(cc(F)c(Cl)c2-c2c(F)cccc2C(N)=O)O1 [Example 32a, 2-((2S,4S)-2-(Aminomethyl)-5-chloro-6-fluoro-2-phenyl-2,3-dihydrobenzofuran-4-yl)-3-fluorobenzamide]
435 nM | 7.74 | 6.66 | > 10000 nM | 5.12 |  |  |  |  |  | NC(=O)c1cccc(F)c1-c1c(Cl)ccc2c1C[C@@](CN[C@H]1CC[C@@H](C(N)=O)CC1)(c1ccccc1)O2 (relative stereo) [Example 138b, 2-((2S,4S)-2-((((cis)-4-carbamoylcyclohexyl)amino)methyl)-5-chloro-2-phenyl-2,3-dihydrobenzofuran-4-yl)-3-fluorobenzamide]
68 nM |  | 7.35 | > 10000 nM | < 5.00 |  |  |  |  | 8.70 | NC(=O)c1ccc(OC(F)F)c(F)c1-c1c(Cl)ccc2c1[C@H](O)[C@@](CN[C@H]1CC[C@H](O)CC1)(c1ccccc1)O2 (relative stereo) [Example 94a, 2-((2S,3S,4S)-5-chloro-3-hydroxy-2-((((trans)-4-hydroxycyclohexyl)amino)methyl)-2-phenyl-2,3-dihydrobenzofuran-4-yl)-4-(difluoromethoxy)-3-fluorobenzamide]
